Data taken from PMC6199744, “Development of Chemical Proteomics for the Folateome and Analysis of the Kinetoplastid Folateome” (ACS Infectious Diseases, 2018).
Where two headings read alike, the source gives them in different places.

Legend:
Assay type in all cases: binding
[1] = molecular target: T1, HeLa cell extract proteins (Homo sapiens, UniProt Q96AG4)
T1 construct: endogenous in cells; host or cells: HeLa cell extract
T1 sequence (Q96AG4 1-307): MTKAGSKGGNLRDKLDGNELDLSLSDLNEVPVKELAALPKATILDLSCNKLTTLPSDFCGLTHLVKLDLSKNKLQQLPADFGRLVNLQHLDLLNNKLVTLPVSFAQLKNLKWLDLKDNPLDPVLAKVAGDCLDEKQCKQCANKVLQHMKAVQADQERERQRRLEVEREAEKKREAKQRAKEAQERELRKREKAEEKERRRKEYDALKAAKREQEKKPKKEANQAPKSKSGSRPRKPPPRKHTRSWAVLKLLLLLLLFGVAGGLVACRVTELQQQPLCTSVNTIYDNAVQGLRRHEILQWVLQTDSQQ

[2] = molecular target: T2, HeLa cell extract proteins (Homo sapiens, UniProt Q14204)
T2 construct: endogenous in cells; host or cells: HeLa cell extract

[3] = molecular target: T3, HeLa cell extract proteins (Homo sapiens, UniProt P08758)
T3 construct: endogenous in cells; host or cells: HeLa cell extract
T3 sequence (P08758 1-320): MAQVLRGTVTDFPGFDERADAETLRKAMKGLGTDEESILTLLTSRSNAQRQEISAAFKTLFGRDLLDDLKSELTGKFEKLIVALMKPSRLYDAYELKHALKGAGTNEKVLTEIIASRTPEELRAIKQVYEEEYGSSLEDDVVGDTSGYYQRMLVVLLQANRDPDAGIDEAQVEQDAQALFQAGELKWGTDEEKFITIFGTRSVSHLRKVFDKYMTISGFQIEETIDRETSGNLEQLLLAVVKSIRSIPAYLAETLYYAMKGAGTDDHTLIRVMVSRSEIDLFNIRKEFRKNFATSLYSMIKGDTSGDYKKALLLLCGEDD

[4] = molecular target: T4, HeLa cell extract proteins (Homo sapiens, UniProt Q8IXB1)
T4 construct: endogenous in cells; host or cells: HeLa cell extract
T4 sequence (Q8IXB1 33-793): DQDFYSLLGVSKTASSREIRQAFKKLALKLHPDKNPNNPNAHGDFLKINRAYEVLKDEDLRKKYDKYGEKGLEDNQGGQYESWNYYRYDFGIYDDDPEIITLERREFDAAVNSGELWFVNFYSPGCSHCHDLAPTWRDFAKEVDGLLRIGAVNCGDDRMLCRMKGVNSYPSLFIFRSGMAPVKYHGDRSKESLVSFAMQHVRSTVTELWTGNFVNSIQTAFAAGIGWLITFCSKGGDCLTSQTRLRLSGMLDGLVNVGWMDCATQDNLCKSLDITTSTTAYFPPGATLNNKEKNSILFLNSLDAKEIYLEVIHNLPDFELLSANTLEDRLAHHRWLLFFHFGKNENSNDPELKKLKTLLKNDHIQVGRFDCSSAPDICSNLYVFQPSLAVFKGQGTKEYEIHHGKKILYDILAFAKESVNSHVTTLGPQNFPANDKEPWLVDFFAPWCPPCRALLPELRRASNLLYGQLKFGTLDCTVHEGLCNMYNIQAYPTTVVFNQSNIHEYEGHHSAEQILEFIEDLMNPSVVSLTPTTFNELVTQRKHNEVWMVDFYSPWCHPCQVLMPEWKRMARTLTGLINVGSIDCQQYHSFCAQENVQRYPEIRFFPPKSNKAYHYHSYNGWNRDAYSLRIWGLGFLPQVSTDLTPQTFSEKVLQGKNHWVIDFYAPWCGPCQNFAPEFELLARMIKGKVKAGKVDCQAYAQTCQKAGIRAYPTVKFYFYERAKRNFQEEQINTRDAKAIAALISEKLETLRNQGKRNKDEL

[5] = molecular target: T5, HeLa cell extract proteins (Homo sapiens, UniProt Q96EN8)
T5 construct: endogenous in cells; host or cells: HeLa cell extract
T5 sequence (Q96EN8 1-888): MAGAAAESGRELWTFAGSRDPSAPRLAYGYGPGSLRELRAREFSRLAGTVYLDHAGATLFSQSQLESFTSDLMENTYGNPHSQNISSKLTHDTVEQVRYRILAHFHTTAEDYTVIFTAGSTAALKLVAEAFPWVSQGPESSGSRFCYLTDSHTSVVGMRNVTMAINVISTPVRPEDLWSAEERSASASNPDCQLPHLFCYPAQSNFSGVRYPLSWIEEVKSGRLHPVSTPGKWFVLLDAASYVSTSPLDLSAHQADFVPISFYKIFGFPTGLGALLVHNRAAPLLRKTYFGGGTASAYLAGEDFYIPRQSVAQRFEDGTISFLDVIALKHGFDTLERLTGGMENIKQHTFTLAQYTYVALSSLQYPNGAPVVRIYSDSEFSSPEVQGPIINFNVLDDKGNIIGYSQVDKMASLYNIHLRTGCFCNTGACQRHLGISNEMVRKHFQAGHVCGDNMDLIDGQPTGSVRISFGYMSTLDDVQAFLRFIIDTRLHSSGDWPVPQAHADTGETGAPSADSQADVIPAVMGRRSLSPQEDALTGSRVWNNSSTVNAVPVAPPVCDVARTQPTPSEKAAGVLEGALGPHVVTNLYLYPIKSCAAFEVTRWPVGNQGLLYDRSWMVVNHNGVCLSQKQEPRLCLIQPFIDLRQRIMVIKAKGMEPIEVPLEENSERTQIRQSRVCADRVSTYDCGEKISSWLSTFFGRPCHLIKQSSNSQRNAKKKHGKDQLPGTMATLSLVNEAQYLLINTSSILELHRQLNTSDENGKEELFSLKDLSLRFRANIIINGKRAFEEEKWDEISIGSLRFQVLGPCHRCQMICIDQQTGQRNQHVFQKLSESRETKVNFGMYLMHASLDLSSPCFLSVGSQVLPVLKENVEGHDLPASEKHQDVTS

[6] = molecular target: T6, HeLa cell extract proteins (Homo sapiens, UniProt P48047)
T6 construct: endogenous in cells; host or cells: HeLa cell extract
T6 sequence (P48047 24-213): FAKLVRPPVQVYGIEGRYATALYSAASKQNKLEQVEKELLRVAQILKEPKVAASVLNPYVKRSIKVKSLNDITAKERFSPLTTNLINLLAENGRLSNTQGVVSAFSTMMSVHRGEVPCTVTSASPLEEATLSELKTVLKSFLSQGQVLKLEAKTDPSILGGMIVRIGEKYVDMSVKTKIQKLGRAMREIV

[7] = molecular target: T7, HeLa cell extract proteins (Homo sapiens, UniProt P12956)
T7 construct: endogenous in cells; host or cells: HeLa cell extract
T7 sequence (P12956 whole entry): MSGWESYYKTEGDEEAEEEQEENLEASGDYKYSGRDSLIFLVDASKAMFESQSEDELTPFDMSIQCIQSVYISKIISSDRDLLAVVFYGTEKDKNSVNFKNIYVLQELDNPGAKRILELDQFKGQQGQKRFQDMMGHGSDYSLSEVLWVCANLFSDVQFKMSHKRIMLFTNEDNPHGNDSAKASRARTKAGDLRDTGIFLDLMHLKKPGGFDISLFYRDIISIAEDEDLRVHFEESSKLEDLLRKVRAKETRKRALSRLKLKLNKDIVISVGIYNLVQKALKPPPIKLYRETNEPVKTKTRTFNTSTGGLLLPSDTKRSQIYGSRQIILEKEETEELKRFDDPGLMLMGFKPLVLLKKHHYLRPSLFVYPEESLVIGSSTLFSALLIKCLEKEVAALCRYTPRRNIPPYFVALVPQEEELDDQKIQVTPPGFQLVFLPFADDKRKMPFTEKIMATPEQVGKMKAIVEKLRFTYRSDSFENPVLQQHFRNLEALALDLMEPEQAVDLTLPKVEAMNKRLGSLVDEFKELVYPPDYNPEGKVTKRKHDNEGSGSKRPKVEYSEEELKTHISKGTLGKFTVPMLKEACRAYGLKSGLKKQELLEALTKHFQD

[8] = HeLa, protein ANXA5 (ANNEXIN A5.)

| Structure (SMILES) | fold changes relative to vehicle control ([1]; HeLa, protein LRRC59) | fold changes relative to vehicle control ([2]; HeLa, captured protein DYNC1H1) | fold changes relative to vehicle control ([3]; HeLa, protein ANXA5) | fold changes relative to vehicle control ([4]; HeLa, protein DNAJC10) | fold changes relative to vehicle control ([5]; HeLa, protein MOCOS) | fold changes relative to vehicle control ([6]; HeLa, captured protein ATP5O) | fold changes relative to vehicle control ([7]; HeLa, protein XRCC6) | fold changes relative to vehicle control [1] | fold changes relative to vehicle control [2] | fold changes relative to vehicle control [3] | fold changes relative to vehicle control [4] | fold changes relative to vehicle control [5] | fold changes relative to vehicle control [6] | fold changes relative to vehicle control [7] | fold changes relative to vehicle control ([1]; protein LRRC59, HeLa) | fold changes relative to vehicle control ([2]; protein DYNC1H1, HeLa) | fold changes relative to vehicle control [3, 8] | fold changes relative to vehicle control ([6]; protein ATP5O, HeLa) | fold changes relative to vehicle control ([7]; protein XRCC6, HeLa) |
| --- | --- | --- | --- | --- | --- | --- | --- | --- | --- | --- | --- | --- | --- | --- | --- | --- | --- | --- | --- |
| Nc1nc2c(c(=O)[nH]1)N(C=O)C(CNc1ccc(C(=O)N[C@@H](CCC(=O)O)C(=O)O)cc1)CN2 (stereo partly shown) [LEU, leucovorin] | 0.83 | 1.02 | 0.99 | 0.89 | 1.07 | 1.01 | 0.96 |  |  |  |  |  |  |  |  |  |  |  |  |
| Nc1nc2[nH]cc(CCc3ccc(C(=O)N[C@@H](CCC(=O)O)C(=O)O)cc3)c2c(=O)[nH]1 [PTX, pemetrexed] |  |  |  |  |  |  |  | 0.83 | 0.99 | 0.97 | 0.91 | 1.01 | 1.01 | 1.02 |  |  |  |  |  |
| CCCCCCOc1ccc(Cc2cnc(N)nc2N)cc1 [compound 1] |  |  |  | 0.89 | 1.03 |  |  |  |  |  |  |  |  |  | 1.14 | 1 | 1.33 fold | 0.98 | 1.13 |
| CCCCCCOc1cccc(Cc2cnc(N)nc2N)c1 [compound 2] |  |  |  | 0.85 | 1.11 |  |  |  |  |  |  |  |  |  | 1.54 | 1.03 | 2.23 fold | 0.98 | 1.93 |
| Nc1nc2cccc(-c3ccccc3)c2n1Cc1ccc(Cl)c(Cl)c1 [compound 3] |  |  |  | 1.04 | 0.96 |  |  |  |  |  |  |  |  |  | 0.98 | 1.07 | 0.91 fold | 0.9 | 0.92 |
| NCCOCCOCC(=O)Nc1nc2ncc(CNc3ccc(C(=O)NC(CCC(=O)O)C(=O)O)cc3)nc2c(=O)[nH]1 (stereo not shown) [compound 6] | 1.13 | 1.11 | 1.26 | 0.89 | 1.11 | 0.97 | 1.09 |  |  |  |  |  |  |  |  |  |  |  |  |
| NCCCNc1ccc(C(=O)NC(CCC(=O)O)C(=O)O)cc1 (stereo not shown) [compound 7] | 0.87 | 1.1 | 0.9 | 0.94 | 1.06 | 1.02 | 0.92 |  |  |  |  |  |  |  |  |  |  |  |  |
